In PubChem BioAssay (NCI):
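Compound exposure: 48 hours, 5 concentrations, 96-well plates. At the GI50, growth is halved. At the TGI there is no net growth.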

How the values were obtained:
Assay in all cases: NCI anticancer screen, dose series, 48 h
[1] = system: 786-0 renal
[2] = system: A498 renal
[3] = system: A549 NSCLC
[4] = system: ACHN renal
[5] = system: BT-549 breast
[6] = system: CAKI-1 renal
[7] = system: CCRF-CEM leukemia
[8] = system: COLO 205 colon
[9] = system: DU-145 prostate
[10] = system: EKVX NSCLC
[11] = system: HCC-2998 colon
[12] = system: HCT-116 colon
[13] = system: HCT-15 colon
[14] = system: HL-60(TB) leukemia
[15] = system: HOP-62 NSCLC
[16] = system: HOP-92 NSCLC
[17] = system: HS 578T breast
[18] = system: HT29 colon
[19] = system: IGROV1 ovarian
[20] = system: KM12 colon
[21] = system: LOX IMVI melanoma
[22] = system: M14 melanoma
[23] = system: MALME-3M melanoma
[24] = system: MCF7 breast
[25] = system: MDA-MB-231 breast
[26] = system: MDA-MB-435
[27] = system: MOLT-4 leukemia
[28] = system: NCI-H226 lung
[29] = system: NCI-H460 lung
[30] = system: NCI-H522 lung
[31] = system: NCI/ADR-RES ovarian
[32] = system: OVCAR-4 ovarian
[33] = system: OVCAR-5 ovarian
[34] = system: OVCAR-8 ovarian
[35] = system: PC-3 prostate
[36] = system: RPMI-8226 leukemia
[37] = system: RXF 393 renal
[38] = system: SF-268 CNS
[39] = system: SF-295 CNS
[40] = system: SF-539 CNS
[41] = system: SK-MEL-2 melanoma
[42] = system: SK-MEL-28 melanoma
[43] = system: SK-MEL-5 melanoma
[44] = system: SK-OV-3 ovarian
[45] = system: SN12C renal
[46] = system: SNB-19 CNS
[47] = system: SNB-75 CNS
[48] = system: SR leukemia
[49] = system: SW-620 colon
[50] = system: T-47D breast
[51] = system: TK-10 renal
[52] = system: U251 CNS
[53] = system: UACC-257 melanoma
[54] = system: UACC-62 melanoma
[55] = system: UO-31 renal

SMILES: CCCCCCNC(=O)Oc1ccc(/C(=C(/C)c2ccc(OC)cc2)c2ccc(OCCN3CCCCCC3)cc2)cc1
- GI50 [1]: 1.68 µM
- TGI [1]: 3.1 µM
- GI50 [2]: 7.14 µM
- TGI [2]: 20.2 µM
- GI50 [3]: 3.56 µM
- TGI [3]: 14.4 µM
- GI50 [4]: 3.17 µM
- TGI [4]: 10.4 µM
- GI50 [5]: 2.66 µM
- TGI [5]: 7.94 µM
- GI50 [6]: 3.84 µM
- TGI [6]: 15 µM
- GI50 [7]: 2.62 µM
- TGI [7]: > 100 µM
- GI50 [8]: 1.88 µM
- TGI [8]: 3.54 µM
- GI50 [9]: 8.29 µM
- TGI [9]: 23.4 µM
- GI50 [10]: 5.15 µM
- TGI [10]: 19.2 µM
- GI50 [11]: 2.09 µM
- TGI [11]: 4.71 µM
- GI50 [12]: 1.52 µM
- TGI [12]: 2.85 µM
- GI50 [13]: 1.48 µM
- TGI [13]: 3.15 µM
- GI50 [14]: 0.988 µM
- TGI [14]: 3.47 µM
- GI50 [15]: 6.7 µM
- TGI [15]: 20.7 µM
- GI50 [16]: 2 µM
- TGI [16]: 6.96 µM
- GI50 [17]: 2.75 µM
- TGI [17]: 12.3 µM
- GI50 [18]: 1.71 µM
- TGI [18]: 4.09 µM
- GI50 [19]: 3.66 µM
- TGI [19]: 13.6 µM
- GI50 [20]: 10.9 µM
- TGI [20]: 24.2 µM
- GI50 [21]: 1.45 µM
- TGI [21]: 2.76 µM
- GI50 [22]: 1.81 µM
- TGI [22]: 3.56 µM
- GI50 [23]: 1.77 µM
- TGI [23]: 3.44 µM
- GI50 [24]: 0.377 µM
- TGI [24]: 2.58 µM
- GI50 [25]: 1.89 µM
- TGI [25]: 3.76 µM
- GI50 [26]: 2.11 µM
- TGI [26]: 4.71 µM
- GI50 [27]: 2.38 µM
- TGI [27]: 7.45 µM
- GI50 [28]: 10.3 µM
- TGI [28]: 23.6 µM
- GI50 [29]: 1.9 µM
- TGI [29]: 3.52 µM
- GI50 [30]: 4.12 µM
- TGI [30]: 16.2 µM
- GI50 [31]: 2.91 µM
- TGI [31]: 11.2 µM
- GI50 [32]: 4.6 µM
- TGI [32]: 18.5 µM
- GI50 [33]: 7.03 µM
- TGI [33]: 20.5 µM
- GI50 [34]: 1.96 µM
- TGI [34]: 3.99 µM
- GI50 [35]: 3.05 µM
- TGI [35]: 11.4 µM
- GI50 [36]: 2.21 µM
- TGI [36]: 5.47 µM
- GI50 [37]: 1.8 µM
- TGI [37]: 3.85 µM
- GI50 [38]: 7.36 µM
- TGI [38]: 24 µM
- GI50 [39]: 1.76 µM
- TGI [39]: 3.36 µM
- GI50 [40]: 1.67 µM
- TGI [40]: 3.1 µM
- GI50 [41]: 2.09 µM
- TGI [41]: 4.79 µM
- GI50 [42]: 1.86 µM
- TGI [42]: 3.73 µM
- GI50 [43]: 1.69 µM
- TGI [43]: 3.12 µM
- GI50 [44]: 7.57 µM
- TGI [44]: 21.2 µM
- GI50 [45]: 1.97 µM
- TGI [45]: 4.77 µM
- GI50 [46]: 7.29 µM
- TGI [46]: 32.1 µM
- GI50 [47]: 5.79 µM
- TGI [47]: 22.1 µM
- GI50 [48]: 1.32 µM
- TGI [48]: 4.6 µM
- GI50 [49]: 2.01 µM
- TGI [49]: 4.15 µM
- GI50 [50]: 1.39 µM
- TGI [50]: 4.01 µM
- GI50 [51]: 17 µM
- TGI [51]: 31.3 µM
- GI50 [52]: 1.72 µM
- TGI [52]: 3.33 µM
- GI50 [53]: 2.1 µM
- TGI [53]: 5.05 µM
- GI50 [54]: 2.21 µM
- TGI [54]: 4.97 µM
- GI50 [55]: 2.14 µM
- TGI [55]: 6.63 µM
